Measurements as given in patent US10519169B2, “3-(1H-pyrrolo[2,3-C]pyridin-2-yl)-1 H-pyrazolo[4,3-B]pyridines and therapeutic uses thereof” (Samumed, LLC, priority 2015, dated 2019).

Tests used:
[1] = test system: primary human fibroblasts derived from IPF patients (LL29 cells) treated with TGF-β1; assay: Inhibition of fibrotic process, αSMA staining in TGF-β1 treated LL29 fibroblasts; format: cell-based; conditions: Fibroblast; for EC50: 96 h, TGF-β1 20 ng/mL, 4 days, % cells positive for αSMA; for inhibition at 10 µM: given for EC50 >10 μM, TGF-β1, αSMA, read-out: percent inhibition at 10 μM
Description: Representative compounds were screened using primary human fibroblasts (derived from IPF patients) treated with TGF-β1 to determine their ability to inhibit the fibrotic process.
Primary human fibroblasts derived from IPF patients (LL29 cells) [^1Xiaoqiu Liu, et. al., “Fibrotic Lung Fibroblasts Show Blunted Inhibition by cAMP Due to Deficient cAMP Response Element-Binding Protein Phosphorylation”, Journal of Pharmacology and Experimental Therapeutics (2005), 315(2), 678-687; ^2Watts, K. L., et. al., “RhoA signaling modulates cyclin D1 expression in human lung fibroblasts; implications for idiopathic pulmonary fibrosis”, Respiratory Research (2006), 7(1), 88] were obtained from American Type Culture Collection (ATCC) and expanded in F12 medium supplemented with 15% Fetal Bovine Serum and Penicillin/Streptomycin.
Each compound was dissolved in DMSO as a 10 mM stock and used to prepare compound source plates. Serial dilution (1:2, 11-point dose-response curves from […] to […]) and compound transfer was performed using the ECHO 550 (Labcyte, Sunnyvale, Calif.) into 384-well clear bottom assay plates (Greiner Bio-One) with appropriate DMSO backfill for a final DMSO concentration of 0.1%. LL29 cells are plated at 1,500 cells/well in 80 μL/well F12 medium supplemented with 1% Fetal Bovine Serum. One hour after addition of the cells, TGF-β1 (Peprotech; 20 ng/mL) was added to the plates to induce fibrosis (ref. 1 and 2 above). Wells treated with TGF-β1 and containing DMSO were used as controls. Cells were incubated at 37° C. and 5% CO2 for 4 days. Following incubation for 4 days, SYTOX green nucleic acid stain (Life Technologies [Thermo Fisher Scientific]) was added to the wells at a final concentration of 1 μM and incubated at room temperature for 30 min. Cells were then fixed using 4% formaldehyde (Electron Microscopy Sciences), washed 3 times with PBS followed by blocking and permeabilization using 3% Bovine Serum Albumin (BSA; Sigma) and 0.3% Triton X-100 (Sigma) in PBS. Cells were then stained with antibody specific to α-smooth muscle actin (aSMA; Abcam) (ref. 1 and 2 above) in 3% Bovine Serum Albumin (BSA; Sigma) and 0.3% Triton X-100 (Sigma) in PBS, and incubated overnight at 4° C. Cells were then washed 3 times with PBS, followed by incubation with Alexa Flor-647 conjugated secondary antibody (Life Technologies [Thermo Fisher Scientific]) and DAPI at room temperature for 1 hour. Cells were then washed 3 times with PBS and plates were sealed for imaging. aSMA staining was imaged by excitation at 630 nm and emission at 665 nm and quantified using the Compartmental Analysis program on the CellInsight CX5 (Thermo Scientific). Dead or apoptotic cells were excluded from analysis based on positive SYTOX green staining. % of total cells positive for aSMA were counted in each well and normalized to the average of 11 wells treated with TGF-β1 on the same plate using Dotmatics' Studies Software. The normalized averages (fold change over untreated) of 3 replicate wells for each compound concentration were used to create dose-responses curves and EC50 values were calculated using non-linear regression curve fit in the Dotmatics' Studies Software. For EC50 of >10 μM, the percent inhibition at 10 μM is provided.

[2] = test system: primary human mesenchymal stem cells (hMSCs); assay: Chondrogenesis induction in hMSCs (chondrogenic nodules); format: cell-based; conditions: 144 h, 6 days; for EC50: concentration required to induce 50% levels of chondrogenesis vs TGF-β3, read-out: Conc (nM) of 50% TGF-β3 activity; for Emax: nodules, relative to TGF-β3 positive control (10 ng/mL), read-out: Max. Activity as % TGF-β3 activity
Protocol: Representative compounds were screened using primary human mesenchymal stem cells (hMSCs) to determine their ability to induce chondrogenesis (process by which cartilage is developed).
Primary human mesenchymal stem cells (hMSCs) were purchased from Lonza (Walkersville, Md.) and expanded in Mesenchymal Stem Cell Growth Media (Lonza). Cells between passage 3 and 6 were used for the experiments.
Each compound was dissolved in DMSO as a 10 mM stock and used to prepare compound source plates. Serial dilution (1:3, 6-point dose-response curves from 2700 nM to 10 nM) and compound transfer was performed using the ECHO 550 (Labcyte, Sunnyvale, Calif.) into 96-well clear bottom assay plates (Greiner Bio-One) with appropriate DMSO backfill for a final DMSO concentration of 0.03%. hMSCs were plated at 20,000 cells/well in 250 μL/well Incomplete Chondrogenic Induction Medium (Lonza; DMEM, dexamethasone, ascorbate, insulin-transferrin-selenium [ITS supplement], gentamycin-amphotericin [GA-1000], sodium pyruvate, proline and L-glutamine). TGF-03 (10 ng/mL) was used as a positive control for differentiation while negative control wells were treated with 75 nL DMSO for normalization and calculating EC50 values. Cells were incubated at 37° C. and 5% CO2 for 6 days. To image chondrogenic nodules, the cells were fixed using 4% formaldehyde (Electron Microscopy Sciences), and stained with 2 μg/mL Rhodamine B (Sigma-Aldrich) and 20 μM Nile Red (Sigma-Aldrich) [Johnson K., et. al, A Stem Cell-Based Approach to Cartilage Repair, Science, (2012), 336(6082), 717-721]. The nodules imaged (4 images per well at 4× magnification) by excitation at 531 nm and emission at 625 nm and quantified using the CellInsight CX5 (Thermo Scientific). Number of nodules in each well was normalized to the average of 3 DMSO treated wells on the same plate using Excel (Microsoft Inc.). The normalized averages (fold change over DMSO) of 3 replicate wells for each compound concentration were calculated. Due to solubility limitations of some of the compounds, curve fitting was incomplete leading to inaccurate EC50 determinations.
Using TGF-β3 as a positive control, the concentration of representative compounds required to induce 50% levels of chondrogenesis is reported. In addition, the maximum activity of each compound and the respective dose that each compound reached maximum chondrogenesis activity is reported.

## O=C(Cc1ccccc1)Nc1cncc(-c2ccc3[nH]nc(-c4cc5c(-c6ccoc6)cncc5[nH]4)c3n2)c1 [Compound 318, N-(5-(3-(4-(Furan-3-yl)-1H-pyrrolo[2,3-c]pyridin-2-yl)-1H-pyrazolo[4,3-b]pyridin-5-yl)pyridin-3-yl)-2-phenylacetamide]
[1]
  EC50: > 10000 nM
  inhibition at 10 µM: 35.5%

## c1ccc(-c2ccc3[nH]nc(-c4cc5ccncc5[nH]4)c3n2)nc1 [Compound 280, 5-(Pyridin-2-yl)-3-(1H-pyrrolo[2,3-c]pyridin-2-yl)-1H-pyrazolo[4,3-b]pyridine]
[1]
  EC50: 1250 nM

## O=C(Nc1cncc(-c2ccc3[nH]nc(-c4cc5ccncc5[nH]4)c3n2)c1)C1CCCC1 [Compound 274, N-(5-(3-(1H-Pyrrolo[2,3-c]pyridin-2-yl)-1H-pyrazolo[4,3-b]pyridin-5-yl)pyridin-3-yl)cyclopentanecarboxamide]
[1]
  EC50: 656 nM
[2]
  EC50: 30 nM
  Emax: 50%

## Fc1ccc(-c2cncc3[nH]c(-c4n[nH]c5ccc(-c6cncc(CN7CCC(F)(F)C7)c6)nc45)cc23)cc1 [Compound 54, 5-(5-((3,3-Difluoropyrrolidin-1-yl)methyl)pyridin-3-yl)-3-(4-(4-fluorophenyl)-1H-pyrrolo[2,3-c]pyridin-2-yl)-1H-pyrazolo[4,3-b]pyridine]
[1]
  EC50: 370 nM
[2]
  EC50: 900 nM
  Emax: 194%

## O=C(Nc1cncc(-c2ccc3[nH]nc(-c4cc5c(-c6ccc(F)cc6)cncc5[nH]4)c3n2)c1)c1ccccc1 [Compound 39, N-(5-(3-(4-(4-Fluorophenyl)-1H-pyrrolo[2,3-c]pyridin-2-yl)-1H-pyrazolo [4,3-b]pyridin-5-yl)pyridin-3-yl)benzamide]
[1]
  EC50: > 10000 nM
  inhibition at 10 µM: 39.8%

## Cc1ncc(-c2ccc3[nH]nc(-c4cc5c(-c6ccncc6)cncc5[nH]4)c3n2)n1C [Compound 573, 5-(1,2-Dimethyl-1H-imidazol-5-yl)-3-(4-(pyridin-4-yl)-1H-pyrrolo[2,3-c]pyridin-2-yl)-1H-pyrazolo[4,3-b]pyridine]
[1]
  EC50: 2190 nM

## Cc1ccncc1-c1ccc2[nH]nc(-c3cc4c(-c5ccc(F)cc5)cncc4[nH]3)c2n1 [Compound 33, 3-(4-(4-Fluorophenyl)-1H-pyrrolo[2,3-c]pyridin-2-yl)-5-(4-methylpyridin-3-yl)-1H-pyrazolo[4,3-b]pyridine]
[1]
  EC50: 1760 nM
[2]
  Emax: 28%

## CS(=O)(=O)NCc1cc(F)cc(-c2cncc3[nH]c(-c4n[nH]c5ccc(-c6cncc(CN7CCCCC7)c6)nc45)cc23)c1 [Compound 491, N-(3-Fluoro-5-(2-(5-(5-(piperidin-1-ylmethyl)pyridin-3-yl)-1H-pyrazolo[4,3-b]pyridin-3-yl)-1H-pyrrolo[2,3-c]pyridin-4-yl)benzyl)methanesulfonamide]
[1]
  EC50: 1220 nM
[2]
  EC50: 10 nM
  Emax: 83%

## c1cc(-c2cncc3[nH]c(-c4n[nH]c5ccc(-c6cncc(OCCN7CCCC7)c6)nc45)cc23)co1 [Compound 690, 3-(4-(Furan-3-yl)-1H-pyrrolo[2,3-c]pyridin-2-yl)-5-(5-(2-(pyrrolidin-1-yl)ethoxy)pyridin-3-yl)-1H-pyrazolo[4,3-b]pyridine]
[1]
  EC50: > 10000 nM
  inhibition at 10 µM: 29.5%

## Fc1cccc(-c2cncc3[nH]c(-c4n[nH]c5ccc(C6CCNCC6)nc45)cc23)c1 [Compound 505, 3-(4-(3-Fluorophenyl)-1H-pyrrolo[2,3-c]pyridin-2-yl)-5-(piperidin-4-yl)-1H-pyrazolo[4,3-b]pyridine]
[1]
  EC50: > 10000 nM
  inhibition at 10 µM: 0%
[2]
  EC50: 2700 nM
  Emax: 103%

## Nc1cncc(-c2ccc3[nH]nc(-c4cc5c(-c6ccncc6)cncc5[nH]4)c3n2)c1 [Compound 115, 5-(3-(4-(Pyridin-4-yl)-1H-pyrrolo[2,3-c]pyridin-2-yl)-1H-pyrazolo[4,3-b]pyridin-5-yl)pyridin-3-amine]
[1]
  EC50: 6650 nM
[2]
  EC50: 30 nM
  Emax: 53%

## CN(C)Cc1cncc(-c2ccc3[nH]nc(-c4cc5c(-c6ccccc6F)cncc5[nH]4)c3n2)c1 [Compound 69, 1-(5-(3-(4-(2-Fluorophenyl)-1H-pyrrolo[2,3-c]pyridin-2-yl)-1H-pyrazolo [4,3-b]pyridin-5-yl)pyridin-3-yl)-N,N-dimethylmethanamine]
[1]
  EC50: 1120 nM
[2]
  EC50: 30 nM
  Emax: 51%

## Fc1ccccc1-c1cncc2[nH]c(-c3n[nH]c4ccc(-c5cn[nH]c5)nc34)cc12 [Compound 539, 3-(4-(2-Fluorophenyl)-1H-pyrrolo[2,3-c]pyridin-2-yl)-5-(1H-pyrazol-4-yl)-1H-pyrazolo[4,3-b]pyridine]
[1]
  EC50: 2310 nM
[2]
  Emax: 40%

## CS(=O)(=O)NCc1cc(F)cc(-c2cncc3[nH]c(-c4n[nH]c5ccc(-c6ccccn6)nc45)cc23)c1 [Compound 504, N-(3-Fluoro-5-(2-(5-(pyridin-2-yl)-1H-pyrazolo[4,3-b]pyridin-3-yl)-1H-pyrrolo[2,3-c]pyridin-4-yl)benzyl)methanesulfonamide]
[1]
  EC50: 3670 nM
[2]
  EC50: 300 nM
  Emax: 99%

## Cn1cc(-c2ccc3[nH]nc(-c4cc5c(-c6cccnc6)cncc5[nH]4)c3n2)cn1 [Compound 556, 5-(1-Methyl-1H-pyrazol-4-yl)-3-(4-(pyridin-3-yl)-1H-pyrrolo[2,3-c]pyridin-2-yl)-1H-pyrazolo[4,3-b]pyridine]
[1]
  EC50: 3020 nM
[2]
  EC50: 10 nM
  Emax: 52%

## Fc1cccc(-c2cncc3[nH]c(-c4n[nH]c5ccc(-c6cccnc6)nc45)cc23)c1 [Compound 4, 3-(4-(3-Fluorophenyl)-1H-pyrrolo[2,3-c]pyridin-2-yl)-5-(pyridin-3-yl)-1H-pyrazolo[4,3-b]pyridine]
[1]
  EC50: 272 nM
[2]
  EC50: 30 nM
  Emax: 92%

## CS(=O)(=O)NCc1cc(F)cc(-c2cncc3[nH]c(-c4n[nH]c5ccc(-c6cncnc6)nc45)cc23)c1 [Compound 503, N-(3-Fluoro-5-(2-(5-(pyrimidin-5-yl)-1H-pyrazolo[4,3-b]pyridin-3-yl)-1H-pyrrolo[2,3-c]pyridin-4-yl)benzyl)methane sulfonamide]
[1]
  EC50: 2210 nM
[2]
  EC50: 10 nM
  Emax: 106%
